Assay results reported in patent publication US20200138827A1, “SMALL MOLECULE MODULATORS OF HUMAN STING” (Curadev Pharma Limited, priority 2017, published 2020).

What follows are molecules tested against T1, WT/R232 STING protein (Homo sapiens, UniProt Q86WV6, H232R) (assay: Luciferase reporter assay in HEK293T-hSTING-Luciferase cells, WT/R232). Details: 20 hr stimulation, read-out: R232 Activity (EC50 range).
T1 construct: host or cells: HEK293T
Format: cell-based
Description: • a) Stable STING expressing cells—Stable HEK293T STING-expressing cell lines were generated using plasmids purchased from Invivogen, Calif., USA, that contain STING cDNA cloned into the pUNO-1 vector under hEF1-HTLV promoter and containing the Blasticidin selection cassette. The plasmids hSTING(R232), hSTING(H232), hSTING(HAQ) were directly procured from Invivogen while hSTING (AQ) and hSTING (Q) were derived from hSTING(HAQ) and hSTING (R232) plasmids respectively by using a PCR based site directed mutagenesis method. These vectors were individually transfected into HEK293T cells using Lipofectamine (Invitrogen) and transfected cells were selected under Blasticidin selection. These transfected cells were further subjected to clonal selection using the limiting dilution method to obtain clonally pure populations of HEK cells transfected with each of the above mentioned human STING variants. Only those clones were selected in which ligand independent activation of STING was minimal. • b) Stable Luciferase reporter gene expressing cells—Stable HEK293T Luciferase reporter gene expressing cell lines were generated using pCDNA4 plasmids under an IRF-inducible promoter. This promoter is comprised of five tandem interferon-stimulated response elements (ISRE) fused to an ISG54 minimal promoter. This vector was transfected into HEK293T cells using Lipofectamine (Invitrogen) and transfected cells were selected under Zeocin selection. These transfected cells were further subjected to clonal selection using the limiting dilution method to obtain clonally pure populations of HEK cells transfected the Luciferase reporter construct. Only those clones were selected in which ligand independent induction of luciferase was minimal.
5×10^5 clonally selected HEK293T-hSTING-Luciferase cells were seeded in 384-well plates in growth medium and stimulated with novel compounds. After 20 hr of stimulation supernatant were removed and secretary reporter gene activity were measured using the Quanti-Luc detection system (Invivogen) on a Spectramax i3X luminometer.
All compounds were first tested in a primary screen using WT/R232 STING protein to obtain a ‘fold-induction’ over baseline levels of protein activity.

T1 sequence (Q86WV6 whole entry H232R): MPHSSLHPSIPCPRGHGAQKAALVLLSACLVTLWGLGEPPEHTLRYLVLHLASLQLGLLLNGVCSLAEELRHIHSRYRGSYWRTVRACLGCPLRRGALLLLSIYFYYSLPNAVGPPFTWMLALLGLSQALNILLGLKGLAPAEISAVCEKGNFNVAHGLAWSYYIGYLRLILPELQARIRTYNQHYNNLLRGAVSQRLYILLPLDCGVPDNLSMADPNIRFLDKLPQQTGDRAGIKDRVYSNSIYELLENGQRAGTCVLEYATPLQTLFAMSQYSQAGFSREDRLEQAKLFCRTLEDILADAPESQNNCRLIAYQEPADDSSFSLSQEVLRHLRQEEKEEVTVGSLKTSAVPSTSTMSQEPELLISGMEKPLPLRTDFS

EC50	SMILES
> 10 µM	O=C(NC(c1ccccc1)C1CCCCC1)c1ccc2c(c1)N(Cc1ccccc1F)C(=O)CS2 (stereo not shown) [Example 110, N-(cyclohexyl (phenyl)methyl)-4-(2-fluorobenzyl)-3-oxo-3,4-dihydro-2H-benzo[b][1,4] thiazine-6-carboxamide]
1 to 10 µM	CC1(O)Sc2ccc(C(=O)NCc3c(F)cc(F)cc3F)cc2N(Cc2c(F)cccc2Cl)C1=O (stereo not shown) [Example 164, 4-(2-chloro-6-fluorobenzyl)-2-hydroxy-2-methyl-3-oxo-N-(2,4,6-trifluorobenzyl)-3,4-dihydro-2H-benzo[b][1,4] thiazine-6-carboxamide]
> 10 µM	O=C(NCC1CCCC1)c1ccc2c(c1)N(Cc1c(F)cccc1Cl)C(=O)CS2 [Example 35, 4-(2-chloro-6-fluorobenzyl)-N-(cyclopentyl-methyl)-3-oxo-3,4-dihydro-2H-benzo[b][1,4] thiazine-6-carboxamide]
> 10 µM	N#Cc1cc(C(=O)NCc2ccco2)cc2c1SCC(=O)N2Cc1cc(F)cc(F)c1 [Example 220, 8-cyano-4-(3,5-difluorobenzyl)-N-(furan-2-ylmethyl)-3-oxo-3,4-dihydro-2H-benzo[b-1,4]thiazine-6-carboxamide]
> 10 µM	O=C(NCc1cccc2ccccc12)c1ccc2c(c1)N(Cc1ccccc1F)C(=O)CS2 [Example 26, 4-(2-fluorobenzyl)-N-(naphthalen-1-ylmethyl)-3-oxo-3,4-dihydro-2H-benzo[b-1,4]thiazine-6-carboxamide]
> 10 µM	O=C(NCc1ccco1)c1cc2c(cn1)SCC(=O)N2Cc1c(F)cccc1Cl [Example 182, 1-(2-chloro-6-fluorobenzyl)-N-(furan-2-ylmethyl)-2-oxo-2,3-dihydro-1H-pyrido[3,4-b-1,4]thiazine-7-carboxamide]
> 10 µM	O=C(NCc1cccnc1)c1ccc2c(c1)N(Cc1c(F)cccc1Cl)C(=O)CS2 [Example 109, 4-(2-chloro-6-fluorobenzyl)-3-oxo-N-(pyridin-3-ylmethyl)-3,4-dihydro-2H-benzo[b-1,4]thiazine-6-carboxamide]
1 to 10 µM	O=C(NCc1ccco1)c1ccc2c(c1)N(Cc1cc(F)ccc1F)C(=O)CS2 [Example 100, 4-(2,5-difluorobenzyl)-N-(furan-2-ylmethyl)-3-oxo-3,4-dihydro-2H-benzo[b-1,4]thiazine-6-carboxamide]
> 10 µM	O=C(NCc1ccco1)c1ccc2c(c1)N(Cc1ccncc1)C(=O)CS2 [Example 28, N-(furan-2-ylmethyl)-3-oxo-4-(pyridin-4-ylmethyl)-3,4-dihydro-2H-benzo[b-1,4]thiazine-6-carboxamide]
1 to 10 µM	O=C(NCc1c(F)cccc1Cl)c1ccc2c(c1)N(Cc1c(F)cccc1Cl)C(=O)CS2 [Example 21, N,4-bis(2-chloro-6-fluorobenzyl)-3-oxo-3,4-dihydro-2H-benzo[b-1,4]thiazine-carboxamide]
> 10 µM	Cc1cnc(CNC(=O)c2ccc3c(c2)N(Cc2ccccc2)C(=O)CS3)o1 [Example 63, 4-benzyl-N-((5-methyloxazol-2-yl)methyl)-3-oxo-3,4-dihydro-2H-benzo[b-1,4]thiazine-6-carboxamide]
> 10 µM	O=C(NCc1ccccc1-c1ccccc1)c1ccc2c(c1)N(Cc1c(F)cccc1Cl)C(=O)CS2 [Example 46, N-([1,1′-biphenyl]-2-ylmethyl)-4-(2-chloro-6-fluorobenzyl)-3-oxo-3,4-dihyddro-2H-benzo[b][1,4] thiazine-6-carboxamide]
1 to 10 µM	Cc1ccc(CNC(=O)c2ccc3c(n2)N(Cc2cccc(C(N)=O)c2)C(=O)C(C)S3)o1 (stereo not shown) [Example 205, 4-(3-carbamoyl-benzyl)-2-methyl-N-((5-methylfuran-2-yl)methyl)-3-oxo-3,4-dihydro-2H-pyrido[3,2-b][1,4]thiazine-6-carboxamide]
> 10 µM	CN1CCCC(CN2C(=O)CSc3ccc(C(=O)NCc4ccco4)cc32)C1 (stereo not shown) [Example 98, N-(furan-2-ylmethyl)-4-((1-methylpiperidin-3-yl)methyl)-3-oxo-3,4-dihydro-2H-benzo[b-1,4]thiazine-6-carboxamide]
> 10 µM	O=C(NCc1ccco1)c1ccc2c(c1)N(Cc1ccccc1F)CCS2 [Example 247, 4-(2-fluorobenzyl)-N-(furan-2-ylmethyl)-3,4-dihydro-2H-benzo[b-1,4]thiazine-6-carboxamide]
> 10 µM	O=C(NCc1ccco1)c1ccc2c(c1)N(Cc1ccccc1)CCS2 [Example 246, 4-Benzyl-N-(furan-2-ylmethyl)-3,4-dihydro-2H-benzo[b-1,4]thiazine-6-carboxamide]

EC50	SMILES
< 1 µM	CC1Sc2ccc(C(=O)NCc3c(F)cc(F)cc3F)cc2N(Cc2c(F)ccc(O)c2Cl)C1=O (stereo not shown) [Example 155, 4-(2-chloro-6-fluoro-3-hydroxybenzyl)-2-methyl-3-oxo-N-(2,4,6-trifluorobenzyl)-3,4-dihydro-2H-benzo[b][1,4] thiazine-6-carboxamide]
1 to 10 µM	C[C@@H]1Oc2ncc(C(=O)NCc3c(F)cc(F)cc3F)cc2N(Cc2cc(F)cc(F)c2)C1=O [Example 237, (S)-1-(3,5-difluorobenzyl)-3-methyl-2-oxo-N-(2,4,6-trifluorobenzyl)-2,3-dihydro-1H-pyrido[2,3-b-1,4]oxazine-7-carboxamide]
> 10 µM	O=C(NCc1ccccc1Cl)c1ccc2c(c1)N(Cc1ccccc1)C(=O)CS2 [Example 117, 4-benzyl-N-(2-chlorobenzyl)-3-oxo-3,4-dihydro-2H-benzo[b-1,4]thiazine-6-carboxamide]
1 to 10 µM	CC1Sc2ccc(C(=O)NCc3ccco3)cc2N(Cc2ccccc2)C1=O (stereo not shown) [Example 134, 4-benzyl-N-(furan-2-ylmethyl)-2-methyl-3-oxo-3,4-dihydro-2H-benzo[b-1,4]thiazine-6-carboxamide]
> 10 µM	O=C(NCC1CCCN(c2ccccc2)C1)c1ccc2c(c1)N(Cc1ccccc1F)C(=O)CS2 (stereo not shown) [Example 49, 4-(2-fluorobenzyl)-3-oxo-N-((1-phenyl-piperidin-3-yl)methyl)-3,4-dihydro-2H benzo[b][1,4] thiazine-6-carboxamide]
1 to 10 µM	Cc1noc(CNC(=O)c2ccc3c(c2)N(Cc2cc(F)cc(F)c2)C(=O)C(C)S3)n1 (stereo not shown) [Example 167, 4-(3,5-difluorobenzyl)-2-methyl-N-((3-methyl-1,2,4-oxadiazol-5-yl)methyl)-3-oxo-3,4-dihydro-2H-benzo[b][1,4] thiazine-6-carboxamide]
> 10 µM	O=C(NCC(c1ccccc1)C1CCCCC1)c1ccc2c(c1)N(Cc1c(F)cccc1Cl)C(=O)CS2 (stereo not shown) [Example 43, 4-(2-chloro-6-fluorobenzyl)-N-(2-cyclohexyl-2-phenylethyl)-3-oxo-3,4-dihydro-2H-benzo[b][1,4] thiazine-6-carboxamide]
1 to 10 µM	O=C(NCc1ccc(F)cc1F)c1ccc2c(n1)N(Cc1ccc(F)cc1)C(=O)CC2 [Example 282, N-(2,4-difluorobenzyl)-8-(4-fluorobenzyl)-7-oxo-5,6,7,8-tetrahydro-1,8-naphthyridine-2-carboxamide]
> 10 µM	O=C(NCCC1CCCCC1)c1ccc2c(c1)N(Cc1ccccc1)C(=O)CS2 [Example 81, 4-benzyl-N-(2-cyclohexylethyl)-3-oxo-3,4-dihydro-2H-benzo[b-1,4]thiazine-6-carboxamide]
> 10 µM	O=C(NCc1ccco1)c1ccc2c(c1)N(Cc1c(F)cccc1Cl)C(=O)C[S+]2[O-] (stereo not shown) [Example 245, 4-(2-chloro-6-fluorobenzyl)-N-(furan-2-ylmethyl)-3-oxo-3,4-dihydro-2H-benzo[b][1,4]thiazine-6-carboxamide 1-oxide]
> 10 µM	O=C(NCc1ccco1)c1ccc2c(c1)N(Cc1nc3ccccc3s1)C(=O)CS2 [Example 6, 4-(benzo[d]thiazol-2-ylmethyl)-N-(furan-2-ylmethyl)-3-oxo-3,4-dihydro-2H-benzo[b-1,4]thiazine-6-carboxamide]
1 to 10 µM	O=C(NCc1c(F)cc(F)cc1F)c1cnc2c(c1)N(Cc1cc(F)cc(F)c1)C(=O)CC2 [Example 276, 5-(3,5-Difluorobenzyl)-6-oxo-N-(2,4,6-trifluorobenzyl)-5,6,7,8-tetrahydro-1,5-naphthyridine-3-carboxamide]
> 10 µM	O=C(NCc1c(F)cc(F)cc1F)c1cc(CCO)c2c(c1)N(Cc1ccc(F)cc1)C(=O)CS2 [Example 222, 4-(4-fluorobenzyl)-8-(2-hydroxyethyl)-3-oxo-N-(2,4,6-trifluorobenzyl)-3,4-dihydro-2H-benzo[b][1,4] thiazine-6-carboxamide]
1 to 10 µM	O=C(NCc1ccc(Cl)cc1)c1ccc2c(c1)N(Cc1ccccc1)C(=O)CS2 [Example 73, 4-benzyl-N-(4-chlorobenzyl)-3-oxo-3,4-dihydro-2H-benzo[b-1,4]thiazine-6-carboxamide]
> 10 µM	O=C(NCc1ccco1)c1cc2c(cc1C1CC1)SCC(=O)N2Cc1ccccc1F [Example 229, 7-cyclopropyl-4-(2-fluorobenzyl)-N-(furan-2-ylmethyl)-3-oxo-3,4-dihydro-2H-benzo[b-1,4]thiazine-6-carboxamide]
